Like-named read-outs stand apart in the source and are kept apart here.
Legend:
[1] = molecular target: T1, DNA-PK phosphorylation at Serine 2056 (Homo sapiens, UniProt P78527); assay: Cellular Assay for Inhibition of DNA-PK Phosphorylation at Serine 2056 (FaDu cells, neocarzinostatin, sandwich ELISA); type: cell-based; conditions: Table 1
T1 construct: host or cells: FaDu
Procedure, shortened: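 Readout was pSer2056 and total DNA-PK, measured by sandwich ELISA on protein-normalized lysates. Prior to lysis, compound was applied to FaDu cells for 1 h (0.3% DMSO), followed by 2 h of 1 μg/mL neocarzinostatin. IC50 values were fitted from log concentration versus % inhibition normalized to DMSO and NCS controls.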

[2] = molecular target: T2, pDNA-PK ser2056 induction in HCT116 spheroids (Homo sapiens, UniProt P78527); assay: Multicellular tumour spheroid + radiation, pDNA-PK inhibition, HCT116; type: cell-based; conditions: 20 Gy
T2 construct: endogenous in cells; host or cells: HCT116 multicellular tumour spheroids
Procedure, shortened: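 EC50 (μM) is concentration halving radiation-induced pDNA-PK ser2056, scored by fluorescent immunostaining of cryosections 2 h after 20 Gy. HCT116 tumour spheroids (~0.5 mm, stirred, 20% O2/5% CO2, 37 °C) exposed to serial dilutions from 10 or 5 μM to 3.5 nM starting 1 h before irradiation.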

[3] = Example 7, spheroid, cell line HCT115 [sic], 20% O2, read-out: EC50 (pDNA-PK inhibition, immunohistochemical endpoint)
[4] = Example 9 Study 2, 20% O2, read-out: Spheroid Cell line: HCT116 Immunohistochemical endpoint pDNA-PK inhibition EC50
[5] = Example 8, spheroid, read-out: Cell line: HCT116 Immunohistochemical endpoint pDNA-PK inhibition EC50

Question: Which results are given for `c1cnc2cc(N3CCOCC3)nc(O[C@H]3CC[C@@H](Nc4ncc5sccc5n4)CC3)c2c1` [Compound 84, N-((1s,4s)-4-((7-Morpholino-1,6-naphthyridin-5-yl)oxy)cyclohexyl)thieno[3,2-d]pyrimidin-2-amine]?
Answer: IC50 [1]: 100 to 1000 nM; EC50 [2, 3]: 500 to 1000 nM; EC50 [2, 4]: 500 to 1000 nM

Question: Which IC50 [1] does the source give for `c1cnc2cc(N3CCOCC3)nc(O[C@H]3CC[C@@H](Nc4ncc5[nH]ccc5n4)CC3)c2c1` [Compound 85, N-((1s,4s)-4-((7-Morpholino-1,6-naphthyridin-5-yl)oxy)cyclohexyl)-5H-pyrrolo[3,2-d]pyrimidin-2-amine] here?
Answer: Its IC50 is < 100 nM.

Question: And the EC50 [2, 3]?
Answer: Its EC50 is 10 to 500 nM.

Question: What about the EC50 [2, 4] of the same compound?
Answer: Its EC50 is 10 to 500 nM.

Question: With `Cn1ccc2nc(N[C@H]3CC[C@@H](Oc4nc(N5CCOCC5)cc5ncccc45)CC3)ncc21` [Compound 87, 5-Methyl-N-((1s,4s)-4-((7-morpholino-1,6-naphthyridin-5-yl)oxy)cyclohexyl)-5H-pyrrolo[3,2-d]pyrimidin-2-amine] as the compound, how does the IC50 [1] read?
Answer: Its IC50 is < 100 nM.

Question: What about the EC50 [2, 3] of the same compound?
Answer: Its EC50 is 10 to 500 nM.

Question: And the EC50 [2, 4]?
Answer: The EC50 was 10 to 500 nM.

Question: Which results are given for `Cn1cnc2cnc(N[C@H]3CC[C@@H](Oc4nc(N5CCOCC5)cc5ncccc45)CC3)nc21` [Compound 88, 9-Methyl-N-((1s,4s)-4-((7-morpholino-1,6-naphthyridin-5-yl)oxy)cyclohexyl)-9H-purin-2-amine]?
Answer: IC50 [1]: 100 to 1000 nM; EC50 [2, 3]: 10 to 500 nM; EC50 [2, 4]: 10 to 500 nM

Question: How did the IC50 [1] turn out when `c1cnc2cc(N3CCOCC3)nc(O[C@H]3CC[C@@H](Nc4ccn5nccc5n4)CC3)c2c1` [Compound 89, N-((1s,4s)-4-((7-Morpholino-1,6-naphthyridin-5-yl)oxy)cyclohexyl)pyrazolo[1,5-a]pyrimidin-5-amine] was run?
Answer: Its IC50 is 100 to 1000 nM.

Question: And the EC50 [2, 3]?
Answer: Its EC50 is 500 to 1000 nM.

Question: What about the EC50 [2, 4] of the same compound?
Answer: Its EC50 is 500 to 1000 nM.

Question: Which results are given for `O=C(N[C@H]1CC[C@@H](Oc2nc(N3CCOCC3)cc3ncccc23)CC1)c1ccncc1` [Compound 113, N-((1s,4s)-4-((7-morpholino-1,6-naphthyridin-5-yl)oxy)cyclohexyl)isonicotinamide]?
Answer: IC50 [1]: < 100 nM; EC50 [2, 3]: 500 to 1000 nM; EC50 [2, 4]: 500 to 1000 nM

Question: What does the source list for `O=C(N[C@H]1CC[C@@H](Oc2nc(N3CCOCC3)cc3ncccc23)CC1)c1cccnc1` [Compound 115, N-((1s,4s)-4-((7-morpholino-1,6-naphthyridin-5-yl)oxy)cyclohexyl)nicotinamide]?
Answer: IC50 [1]: < 100 nM; EC50 [2, 3]: 1000 to 10000 nM; EC50 [2, 4]: 1000 to 10000 nM

Question: How did the IC50 [1] turn out when `O=C(N[C@H]1CC[C@@H](Oc2nc(N3CCOCC3)cc3ncccc23)CC1)c1ccncn1` [Compound 118, N-((1s,4s)-4-((7-morpholino-1,6-naphthyridin-5-yl)oxy)cyclohexyl)pyrimidine-4-carboxamide] was run?
Answer: Its IC50 is 100 to 1000 nM.

Question: And the EC50 [2, 3]?
Answer: The EC50 was 1000 to 10000 nM.

Question: And the EC50 [2, 4]?
Answer: Its EC50 is 1000 to 10000 nM.

Question: What does the source list for `O=C(N[C@H]1CC[C@@H](Oc2nc(N3CCOCC3)cc3ncccc23)CC1)c1ccnnc1` [Compound 121, N-((1s,4s)-4-((7-morpholino-1,6-naphthyridin-5-yl)oxy)cyclohexyl)pyridazine-4-carboxamide]?
Answer: IC50 [1]: < 100 nM; EC50 [2, 3]: 1000 to 10000 nM; EC50 [2, 4]: 1000 to 10000 nM

Question: Which results are given for `O=C(N[C@H]1CC[C@@H](Oc2nc(N3CCOCC3)cc3ncccc23)CC1)c1cncnc1` [Compound 122, N-((1s,4s)-4-((7-Morpholino-1,6-naphthyridin-5-yl)oxy)cyclohexyl)pyrimidine-5-carboxamide]?
Answer: IC50 [1]: 100 to 1000 nM; EC50 [2, 3]: 1000 to 10000 nM; EC50 [2, 5]: 1000 to 10000 nM; EC50 [2, 4]: 1000 to 10000 nM

Question: For `O=C(N[C@H]1CC[C@@H](Oc2nc(N3CCOCC3)cc3ncccc23)CC1)c1ncccn1` [Compound 123, N-((1s,4s)-4-((7-Morpholino-1,6-naphthyridin-5-yl)oxy)cyclohexyl)pyrimidine-2-carboxamide], which IC50 [1] is on record?
Answer: Its IC50 is 100 to 1000 nM.

Question: What about the EC50 [2, 3] of the same compound?
Answer: The EC50 was 500 to 1000 nM.

Question: What about the EC50 [2, 5] of the same compound?
Answer: Its EC50 is 500 to 1000 nM.

Question: And the EC50 [2, 4]?
Answer: Its EC50 is 500 to 1000 nM.

Question: `O=C(N[C@H]1CC[C@@H](Oc2nc(N3CCOCC3)cc3ncccc23)CC1)c1ccco1` [Compound 132, N-((1s,4s)-4-((7-Morpholino-1,6-naphthyridin-5-yl)oxy)cyclohexyl)furan-2-carboxamide] was tested. Which IC50 [1] did it give?
Answer: The IC50 was < 100 nM.

Question: And the EC50 [2, 3]?
Answer: Its EC50 is 10 to 500 nM.

Question: And the EC50 [2, 5]?
Answer: The EC50 was 10 to 500 nM.

Question: What about the EC50 [2, 4] of the same compound?
Answer: Its EC50 is 10 to 500 nM.

Question: Which results are given for `O=C(N[C@H]1CC[C@@H](Oc2nc(N3CCOCC3)cc3ncccc23)CC1)c1ccc(C(F)(F)F)o1` [Compound 133, N-((1s,4s)-4-((7-Morpholino-1,6-naphthyridin-5-yl)oxy)cyclohexyl)-5-(trifluoromethyl)furan-2-carboxamide]?
Answer: IC50 [1]: 100 to 1000 nM; EC50 [2, 3]: 1000 to 10000 nM; EC50 [2, 5]: 1000 to 10000 nM; EC50 [2, 4]: 1000 to 10000 nM

Question: How did the IC50 [1] turn out when `O=C(N[C@H]1CC[C@@H](Oc2nc(N3CCOCC3)cc3ncccc23)CC1)c1nccs1` [Compound 135, N-((1s,4s)-4-((7-morpholino-1,6-naphthyridin-5-yl)oxy)cyclohexyl)thiazole-2-carboxamide] was run?
Answer: Its IC50 is 100 to 1000 nM.

Question: And the EC50 [2, 3]?
Answer: Its EC50 is 1000 to 10000 nM.

Question: And the EC50 [2, 4]?
Answer: The EC50 was 1000 to 10000 nM.

Question: `O=C(N[C@H]1CC[C@@H](Oc2nc(N3CCOCC3)cc3ncccc23)CC1)c1cc[nH]c1` [Compound 140, N-((1s,4s)-4-((7-morpholino-1,6-naphthyridin-5-yl)oxy)cyclohexyl)-1H-pyrrole-3-carboxamide] was tested. Which IC50 [1] did it give?
Answer: The IC50 was < 100 nM.

Question: And the EC50 [2, 3]?
Answer: The EC50 was 10 to 500 nM.

Question: What about the EC50 [2, 4] of the same compound?
Answer: Its EC50 is 10 to 500 nM.

Question: What does the source list for `O=C(N[C@H]1CC[C@@H](Oc2nc(N3CCOCC3)cc3ncccc23)CC1)c1ncco1` [Compound 142, N-((1s,4s)-4-((7-morpholino-1,6-naphthyridin-5-yl)oxy)cyclohexyl)oxazole-2-carboxamide]?
Answer: IC50 [1]: < 100 nM; EC50 [2, 3]: 1000 to 10000 nM; EC50 [2, 4]: 1000 to 10000 nM

Question: For `O=C(N[C@H]1CC[C@@H](Oc2nc(N3CCOCC3)cc3ncccc23)CC1)c1c[nH]cn1` [Compound 144, N-((1s,4s)-4-((7-morpholino-1,6-naphthyridin-5-yl)oxy)cyclohexyl)-1H-imidazole-4-carboxamide], which IC50 [1] is on record?
Answer: The IC50 was < 100 nM.

Question: What about the EC50 [2, 3] of the same compound?
Answer: The EC50 was 1000 to 10000 nM.

Question: And the EC50 [2, 4]?
Answer: The EC50 was 1000 to 10000 nM.

Question: For `CS(=O)(=O)Nc1cnc2cc(N3CCOCC3)nc(O[C@H]3CC[C@@H](n4ccnc4)CC3)c2c1` [Compound 161, N-(5-(((1s,4s)-4-(1H-imidazol-1-yl)cyclohexyl)oxy)-7-morpholino-1,6-naphthyridin-3-yl)methanesulfonamide], which IC50 [1] is on record?
Answer: Its IC50 is 100 to 1000 nM.

Question: And the EC50 [2, 3]?
Answer: The EC50 was 1000 to 10000 nM.

Question: And the EC50 [2, 5]?
Answer: Its EC50 is 1000 to 10000 nM.

Question: What about the EC50 [2, 4] of the same compound?
Answer: The EC50 was 1000 to 10000 nM.

Question: How did the IC50 [1] turn out when `CS(=O)(=O)Nc1cnc2cc(N3CCOCC3)nc(O[C@H]3CC[C@@H](Nc4ncccn4)CC3)c2c1` [Compound 185, N-(7-morpholino-5-(((1s,4s)-4-(pyrimidin-2-ylamino)cyclohexyl)oxy)-1,6-naphthyridin-3-yl)methanesulfonamide] was run?
Answer: The IC50 was < 100 nM.

Question: And the EC50 [2, 3]?
Answer: The EC50 was 10 to 500 nM.

Question: What about the EC50 [2, 4] of the same compound?
Answer: The EC50 was 10 to 500 nM.

Question: With `COc1cnc(N[C@H]2CC[C@@H](Oc3nc(N4CCOCC4)cc4ncc(NS(C)(=O)=O)cc34)CC2)nc1` [Compound 203, N-(5-(((1s,4s)-4-((5-methoxypyrimidin-2-yl)amino)cyclohexyl)oxy)-7-morpholino-1,6-naphthyridin-3-yl)methanesulfonamide] as the compound, how does the IC50 [1] read?
Answer: Its IC50 is < 100 nM.

Question: And the EC50 [2, 3]?
Answer: Its EC50 is 10 to 500 nM.

Question: And the EC50 [2, 4]?
Answer: Its EC50 is 10 to 500 nM.

Question: How did the IC50 [1] turn out when `CS(=O)(=O)Nc1cnc2cc(N3CCOCC3)nc(O[C@H]3CC[C@@H](NC(=O)c4ncco4)CC3)c2c1` [Compound 205, N-((1s,4s)-4-((3-(methylsulfonamido)-7-morpholino-1,6-naphthyridin-5-yl)oxy)cyclohexyl)oxazole-2-carboxamide] was run?
Answer: Its IC50 is < 100 nM.

Question: What about the EC50 [2, 3] of the same compound?
Answer: The EC50 was 1000 to 10000 nM.

Question: And the EC50 [2, 4]?
Answer: Its EC50 is 1000 to 10000 nM.

Reference: patent US20240246960A1 (adMare Therapeutics Society, priority 2021, published 2024)
